Test system: CD8+ T cells of HLA-A02:01-positive human donors
Format: cell-based
Conditions: not given

Sequence	No. Donors with pMHC specific T tells
KLDDKDPNF	2
YLGTGPEAGL	2

Same assay, conditions: PBMCs from three HLA-A02:01-positive human donors; pMHC multimer positive CD8+ T cells

Sequence	No. Donors with pMHC specific T tells
FGDDTVIEV	3
FLFLTWICL	2
FLLPSLATV	2
GLTVLPPLL	1
KLNDLCFTNV	2
LLLDRLNQL	1

Test system: peripheral CD8+ T cells
Design: species or system human
Conditions: in vivo

Sequence	multimer+ of CD8+
QPTESIVRF	0.17
QYIKWPWYI	1.27
YLQPRTFLL	3.09

Test system: MHC (HLA-I and HLA-II alleles)
Sequence (P61769 21-119): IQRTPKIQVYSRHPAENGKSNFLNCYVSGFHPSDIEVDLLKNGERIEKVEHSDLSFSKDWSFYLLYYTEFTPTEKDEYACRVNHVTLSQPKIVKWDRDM
Design: key: +: previously assayed and confirmed as HLA-A02:01 binders in ViPR
Conditions: cited from earlier work

Sequence	Confirmed in VIPR
ILLNKHIDA	+
LLLDRLNQL	+
NLNESLIDL	+

— patent US20260207734A1 (priority 2021, published 2026)
